Here are results for four molecules from patent US6593342B1, “Pharmaceutical compositions comprising 2-quinolones” (Laboratoire L. Lafon, priority 1998, dated 2003).

Experiment [1] has as its system hormone-sensitive mouse mammary adenocarcinoma MXT (HS-MXT). Kind of experiment: In vivo antitumor activity, mouse mammary adenocarcinoma HS-MXT. As for the experimental part:
(§1) 4.—In Vivo Antitumor Activity in Combination With a Cytotoxic Agent
(§2) The tests were carried out on models of:
hormone-sensitive mouse mammary adenocarcinoma MXT (HS-MXT),
(§3) in the presence or absence of cytotoxic agents such as cyclophosphamide, etoposide, doxorubicin or vincristine.
(§4) When the MTD value of a product was determined, its in vivo antitumor activity was characterized at doses of MTD/2, MTD/4 and MTD/8 on the model of mouse mammary adenocarcinoma HS-MXT and on the model of lymphoma P 388.
(§5) In all the examples presented below, irrespective of the model (mammary adenocarcinoma HS-MXT or lymphoma P 388), the control condition is represented by a batch of 9 mice to which is administered for 5 consecutive weeks and at a rate of 5 administrations (Monday, Tuesday, Wednesday, Thursday and Friday) per week a volume of 0.2 ml of physiological saline containing the solvent used to dissolve the various compounds of formulae (I) and (Ia) used.
The following parameters were determined in these tests:
(§6) i)—The survival rate of the mice
(§7) This survival rate was calculated in the form of a ratio T/C:
(§8) This ratio represents the average survival time of the median mouse from the batch of treated mice relative to the average survival time of the median mouse from the batch of control mice. Thus, a molecule induces a significant (P<0.05) increase in the survival of the animals when the index T/C exceeds 130%. Conversely, it has a toxic effect when this value of T/C is less than 70%.
ii)—The tumor growth [lacuna] by measuring the area of the grafted HS-MXT or P 388 tumors twice a week (Monday and Friday). This area is calculated by multiplying the values of the largest two perpendicular axes of the tumor. The value of these axes is measured using a sliding caliper.
The model of hormone-sensitive MXT (HS-MXT) mouse mammary adenocarcinoma grafted onto 4- to 6-week-old B6D2F1/JIco mice is derived from the milk ducts of the mammary gland (Watson C. et al. Cancer Res. 1977; 37: 3344-48).
Compound 1 is administered alone. The first injection of the product is carried out on the seventh day post-grafting (D7) for four consecutive weeks at a rate of 5 injections per week (Monday, Tuesday, Wednesday, Thursday and Friday) and at a dose of 20 mg/kg.
Cyclophosphamide (CPA) is administered alone. The first injection of the product is carried out on the fourteenth day post-grafting (D14) for three consecutive weeks at a rate of 3 injections per week (Monday, Wednesday and Friday) and at a dose of 10 mg/kg.
Compound 1 is co-administered with cyclophosphamide. In this case, the first injection of compound 1 is carried out on the seventh day post-grafting (D7) for four consecutive weeks at a rate of 5 injections per week (Monday, Tuesday, Wednesday, Thursday and Friday) at a dose of 20 mg/kg, and the first injection of cyclophosphamide is carried out on the fourteenth day post-grafting (D14) for three consecutive weeks at a rate of 3 injections per week (Monday, Wednesday and Friday) at a dose of 10 mg/kg.
Etoposide (ETO) is administered alone. The first injection of the product is carried out on the fourteenth day post-grafting (D14) for three consecutive weeks at a rate of 3 injections per week (Monday, Wednesday and Friday) and at a dose of 10 mg/kg.
Doxorubicin (DOX) is administered alone. The first injection of the product is carried out on the fourteenth day post-grafting (D14) for three consecutive weeks at a rate of 3 injections per week (Monday, Wednesday and Friday) and at a dose of 5 mg/kg.
Compound 1 is co-administered with etoposide.

The subject of a further experiment is lymphoma P 388. In words: In vivo antitumor activity, lymphoma P 388. More on the design: species or system mouse. The conditions noted are these: Table IX; subcutaneous P 388 in CDF1 mice; compound 1 or 20 40 mg/kg 5/week from D5, 5 weeks; VCR 0.63 mg/kg 3/week from D5, 3 weeks. As for the experimental part: as §1, §2, §3, §4, §5, §6, §7, §8
4- to 6-week-old CDF1 mice are grafted with a piece of P 388 tumor (from a tumor bank maintained in the laboratory) subcutaneously into the right flank on day D0. In order to be under conditions close to clinical reality, we waited until the 5th day post-grafting (D5) before starting the treatment. The reason for this was that, after this period of time, the subcutaneous P 388 tumors are palpable.
Compound 1 is administered alone. The first injection of the product is carried out on the 5th day post-grafting (D5) at a rate of 5 injections per week (Monday, Tuesday, Wednesday, Thursday and Friday) for five consecutive weeks-and at a dose of 40 mg/kg.
Compound 20 is administered alone. […]

[2] abbreviates: Table V, HS-MXT in B6D2F1/JIco mice, compound 1 20 mg/kg 5/week from D7, 4 weeks, ETO 10 mg/kg or DOX 5 mg/kg 3/week from D14, 3 weeks.

In the case of `O=P1(N(CCCl)CCCl)NCCCO1` (stereo not drawn) [CPA, Cyclophosphamide], the “T/C (survival)” value in experiment [1] (Table IV, HS-MXT in B6D2F1/JIco mice, compound 1 20 mg/kg 5 injections/week from D7, 4 weeks, CPA 10 mg/kg 3 injections/week from D14, 3 weeks) came to 122%. The “Tumor area, reduction (−) or increase (+) compared with control” value in experiment [1] (Table VI, HS-MXT tumors, 31st day after graft, 19 administrations of compound 1 (20 mg/kg), 8 of cyclophosphamide (10 mg/kg)) is −23.6%.

Regarding `COc1cccc2c1C(=O)c1c(O)c3c(c(O)c1C2=O)C[C@@](O)(C(=O)CO)C[C@@H]3O[C@H]1C[C@H](N)[C@H](O)[C@H](C)O1` [DOX, Doxorubicin], in experiment [1] (setting [2]), the “T/C (survival)” value is reported as 92.5%.

Take `COc1cc([C@@H]2c3cc4c(cc3[C@@H](O[C@@H]3O[C@@H]5CO[C@@H](C)O[C@H]5[C@H](O)[C@H]3O)[C@H]3COC(=O)[C@H]23)OCO4)cc(OC)c1O` [ETO, Etoposide]: the “T/C (survival)” value in experiment [1] (setting [2]) came to 130%; in experiment [1] (Table VII, HS-MXT, compound 21 40 mg/kg 5/week from D7, 5 weeks, ETO 10 mg/kg 3/week from D7, 3 weeks) it was 124%.

`CC[C@]1(O)C[C@H]2CN(CCc3c([nH]c4ccccc34)[C@@](C(=O)OC)(c3cc4c(cc3OC)N(C=O)[C@H]3[C@@](O)(C(=O)OC)[C@H](OC(C)=O)[C@]5(CC)C=CCN6CC[C@]43[C@@H]65)C2)C1` [VCR, Vincristine, reference compound]: the “T/C (survival)” value in the experiment on lymphoma P 388 worked out at 122%.
